# Key:
# [1] = target: T1, Alpha-2A adrenergic receptor (Homo sapiens, UniProt P08913); format: cell membranes, Sf9, Membrane; conditions: sf9; also: in other assays of this panel Not Active means under 50% inhibition at 10 µM
# T1 sequence (P08913 whole entry): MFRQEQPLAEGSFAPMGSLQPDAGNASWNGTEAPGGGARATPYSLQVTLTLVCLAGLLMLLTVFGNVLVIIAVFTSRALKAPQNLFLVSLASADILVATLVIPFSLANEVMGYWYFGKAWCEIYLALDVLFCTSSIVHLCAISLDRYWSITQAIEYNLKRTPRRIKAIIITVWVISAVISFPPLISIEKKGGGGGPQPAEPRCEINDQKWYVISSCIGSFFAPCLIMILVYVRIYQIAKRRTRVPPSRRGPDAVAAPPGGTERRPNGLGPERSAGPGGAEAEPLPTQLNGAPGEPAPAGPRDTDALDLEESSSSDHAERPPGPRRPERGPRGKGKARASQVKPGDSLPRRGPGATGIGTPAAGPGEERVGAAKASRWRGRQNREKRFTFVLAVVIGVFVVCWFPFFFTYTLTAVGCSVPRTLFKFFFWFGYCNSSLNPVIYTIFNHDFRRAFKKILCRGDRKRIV
# D(1A) dopamine receptor = D(1A) dopamine receptor (Homo sapiens, UniProt P21728); test: DRUGMATRIX: Dopamine D1 radioligand binding (ligand: [3H] SCH-23390); format: cell membranes, CHO, Membrane; conditions: cho; Not Active = under 50% inhibition at 10 µM
# [2] = DRUGMATRIX: GABAA, Chloride Channel, TBOB radioligand binding (ligand: [3H] TBOB); format: cell membranes, Rattus norvegicus, Wistar, Cerebral cortex, Membrane; conditions: Not Active = under 50% inhibition at 10 µM
# Caspase-1 = target: T2, Caspase-1 (Homo sapiens, UniProt P29466); design: species or system Escherichia coli;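 also: Caspase-1 enzyme inhibition assay with a peptide substrate; in other assays of this panel Not Active means under 50% inhibition at 10 µM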
# T2 sequence (P29466 whole entry): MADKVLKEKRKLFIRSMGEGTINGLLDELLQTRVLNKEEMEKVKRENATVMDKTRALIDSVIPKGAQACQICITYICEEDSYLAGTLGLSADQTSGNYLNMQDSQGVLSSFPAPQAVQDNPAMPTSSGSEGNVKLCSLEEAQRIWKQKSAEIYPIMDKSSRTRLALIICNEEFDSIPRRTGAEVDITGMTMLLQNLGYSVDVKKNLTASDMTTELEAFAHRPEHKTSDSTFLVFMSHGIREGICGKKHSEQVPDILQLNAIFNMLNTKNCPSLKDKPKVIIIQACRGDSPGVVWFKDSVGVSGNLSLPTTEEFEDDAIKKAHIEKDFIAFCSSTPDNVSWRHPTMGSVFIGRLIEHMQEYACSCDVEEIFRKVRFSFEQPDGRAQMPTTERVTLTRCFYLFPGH
# [3] = target: Receptor tyrosine-protein kinase erbB-2 (Homo sapiens, UniProt P04626); test: biochemical; format: cell-based, Insect cells; conditions: insect cells;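 also: inhibition of HER2 kinase enzyme activity, measured with Poly(Glu:Tyr) as the phosphorylation substrate; in other assays of this panel Not Active means under 50% inhibition at 10 µM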
# D(1A) dopamine receptor, sequence (P21728 whole entry): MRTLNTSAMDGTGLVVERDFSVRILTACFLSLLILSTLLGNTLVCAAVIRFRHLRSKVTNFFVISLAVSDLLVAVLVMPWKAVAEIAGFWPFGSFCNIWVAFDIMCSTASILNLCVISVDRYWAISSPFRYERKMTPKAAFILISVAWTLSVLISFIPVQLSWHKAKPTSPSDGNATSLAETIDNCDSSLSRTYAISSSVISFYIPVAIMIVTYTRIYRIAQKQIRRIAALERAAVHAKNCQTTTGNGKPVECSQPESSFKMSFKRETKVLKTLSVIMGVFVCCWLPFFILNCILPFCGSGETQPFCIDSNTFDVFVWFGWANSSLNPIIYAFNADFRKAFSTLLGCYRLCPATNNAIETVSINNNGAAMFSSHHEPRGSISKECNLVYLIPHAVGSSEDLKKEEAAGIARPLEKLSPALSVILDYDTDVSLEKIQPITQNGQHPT
Molecule,IC50 [1],IC50 (D(1A) dopamine receptor),IC50 [2],Ki [2],IC50 (Caspase-1),IC50 [3],IC50 ([1]; read-out: IC50) [nM],Ki ([1]; read-out: Ki) [nM],Ki (D(1A) dopamine receptor),Ki (Caspase-1),Ki [3],Ki [1]
Cc1nnc2n1-c1ccc(Cl)cc1C(c1ccccc1)=NC2 [ALPRAZOLAM],Not Active,Not Active,Not Active,Not Active,Not Active,Not Active,,,,,,
COC(=O)CCc1ccc(OCC(O)CNC(C)C)cc1 (stereo not given) [ESMOLOL],Not Active,Not Active,Not Active,Not Active,Not Active,Not Active,,,,,,
COc1ccc2cc3[n+](cc2c1OC)CCc1cc2c(cc1-3)OCO2.[Cl-] [BERBERINE CHLORIDE],Not Active,,Not Active,Not Active,Not Active,Not Active,,,,,,
NC(=O)C[S+]([O-])C(c1ccccc1)c1ccccc1 (stereo not given) [MODAFINIL],Not Active,Not Active,Not Active,Not Active,Not Active,Not Active,,,,,,
CC(C)=CCC/C(C)=C/CO [GERANIOL],Not Active,Not Active,Not Active,Not Active,Not Active,Not Active,,,,,,
NCCCC(O)(P(=O)(O)O)P(=O)(O)O [ALENDRONIC ACID],Not Active,Not Active,Not Active,Not Active,Not Active,Not Active,,,,,,
C[C@@H]1CC[C@@]2(OC1)O[C@H]1[C@@H](O)[C@H]3[C@@H]4CC[C@H]5C[C@@H](O[C@@H]6O[C@H](CO)[C@H](O[C@@H]7O[C@H](CO)C(O)[C@H](O[C@@H]8OC[C@@H](O)[C@H](O)[C@H]8O)[C@H]7O[C@@H]7O[C@H](CO)[C@H](O)[C@H](O[C@@H]8O[C@H](CO)[C@@H](O)[C@H](O)[C@H]8O)[C@H]7O)[C@H](O)[C@H]6O)[C@H](O)C[C@]5(C)[C@H]4CC[C@]3(C)[C@H]1[C@@H]2C (stereo not given in full) [DIGITONIN],Not Active,Not Active,Not Active,Not Active,Not Active,Not Active,,,,,,
O=C1CN=C(c2ccccc2Cl)c2cc([N+](=O)[O-])ccc2N1 [CLONAZEPAM],Not Active,Not Active,Not Active,Not Active,Not Active,Not Active,,,,,,
AURANOFIN,,Not Active,Not Active,Not Active,Not Active,Not Active,884,331,Not Active,Not Active,Not Active,
COC(=O)Nc1nc2ccc(C(=O)c3cccs3)cc2[nH]1 [NOCODAZOLE],Not Active,Not Active,Not Active,Not Active,Not Active,Not Active,,,,,,
C[C@H]1O[C@@H](n2cc(F)c(=O)[nH]c2=O)[C@H](O)[C@@H]1O [DOXIFLURIDINE],Not Active,Not Active,Not Active,Not Active,Not Active,Not Active,,,,,,
CC(C(=O)O)c1ccc2oc(-c3ccc(Cl)cc3)nc2c1 (stereo not given) [BENOXAPROFEN],Not Active,Not Active,Not Active,Not Active,Not Active,Not Active,,,,,,
GADOPENTETATE DIMEGLUMINE,Not Active,Not Active,Not Active,Not Active,Not Active,Not Active,,,Not Active,Not Active,Not Active,Not Active
Nc1ccc2c3c(cccc13)C(=O)NC2=O,Not Active,Not Active,Not Active,Not Active,Not Active,Not Active,,,,,,
C[n+]1ccccc1/C=N/O.[Cl-] [PRALIDOXIME CHLORIDE],Not Active,Not Active,Not Active,Not Active,Not Active,Not Active,,,,,,
NNc1nncc2ccccc12 [HYDRALAZINE],Not Active,Not Active,Not Active,Not Active,Not Active,Not Active,,,,,,
O=c1cnn([C@@H]2O[C@H](CO)[C@@H](O)[C@H]2O)c(=O)[nH]1 [6-AZAURIDINE],Not Active,Not Active,Not Active,Not Active,Not Active,Not Active,,,,,,
Cn1c(=O)c2c(ncn2CC(O)CO)n(C)c1=O (stereo not given) [DYPHYLLINE],Not Active,Not Active,Not Active,Not Active,Not Active,Not Active,,,,,,
O=c1cc(N2CCOCC2)oc2c(-c3ccccc3)cccc12 [LY-294002],Not Active,Not Active,Not Active,Not Active,Not Active,Not Active,,,,,,
C[C@@H]1C[C@H]2[C@@H]3CCC4=CC(=O)C=C[C@]4(C)[C@@]3(F)[C@@H](O)C[C@]2(C)[C@H]1C(=O)CO [DESOXIMETASONE],Not Active,Not Active,Not Active,Not Active,Not Active,Not Active,,,,,,
CC(C)(C)NC(=O)[C@H]1CC[C@H]2[C@@H]3CC[C@H]4NC(=O)C=C[C@]4(C)[C@H]3CC[C@]12C [FINASTERIDE],Not Active,Not Active,Not Active,Not Active,Not Active,Not Active,,,,,,
CCn1cc(C(=O)O)c(=O)c2cnc(N3CCCC3)nc21 [PIROMIDIC ACID],Not Active,Not Active,Not Active,Not Active,Not Active,Not Active,,,,,,
CC1(C)S[C@@H]2[C@H](NC(=O)[C@H](N)c3ccccc3)C(=O)N2[C@H]1C(=O)O [AMPICILLIN],Not Active,Not Active,Not Active,Not Active,Not Active,Not Active,,,,,,
Brc1c(NC2=NCCN2)ccc2nccnc12 [BRIMONIDINE],,Not Active,Not Active,Not Active,Not Active,Not Active,,,,,,
CC[C@H](C)[C@H]1O[C@]2(C=C[C@@H]1C)C[C@@H]1C[C@@H](C/C=C(\C)[C@@H](O[C@H]3C[C@H](OC)[C@@H](O[C@H]4C[C@H](OC)[C@@H](O)[C@H](C)O4)[C@H](C)O3)[C@@H](C)/C=C/C=C3\CO[C@@H]4[C@H](O)C(C)=C[C@@H](C(=O)O1)[C@]34O)O2.CO[C@H]1C[C@H](O[C@H]2[C@H](C)O[C@@H](O[C@@H]3/C(C)=C/C[C@@H]4C[C@@H](C[C@]5(C=C[C@H](C)[C@@H](C(C)C)O5)O4)OC(=O)[C@@H]4C=C(C)[C@@H](O)[C@H]5OC/C(=C\C=C\[C@@H]3C)[C@]54O)C[C@@H]2OC)O[C@@H](C)[C@@H]1O [ABAMECTIN],Not Active,,Not Active,Not Active,Not Active,Not Active,,,,,,
COc1cc(N)c(Cl)cc1C(=O)NC1CCN(CCCOc2ccc(F)cc2)CC1OC (stereo not given) [CISAPRIDE],,Not Active,Not Active,Not Active,Not Active,Not Active,,,,,,
N=C(N)NC(=O)Cc1c(Cl)cccc1Cl [GUANFACINE],,Not Active,Not Active,Not Active,Not Active,Not Active,,,,,,
COc1cc2nc(N3CCN(C(=O)c4ccco4)CC3)nc(N)c2cc1OC [PRAZOSIN],,Not Active,Not Active,Not Active,Not Active,Not Active,,,,,,

# — ChEMBL document CHEMBL1909046, “DrugMatrix in vitro pharmacology data”
